Measurements as given in ChEMBL document CHEMBL1125702 (J Med Chem, 1991).

System: Cynomolgus monkey
Assay: Compound was evaluated for pseudo Hill coefficients (nH) in cynomolgus monkeys
Type: ADME, organism-based, Macaca fascicularis
Conditions: in vivo

| Structure (SMILES) | Hill coefficient [nH] |
| --- | --- |
| COC(=O)[C@H]1[C@@H](OC(=O)c2ccccc2)C[C@@H]2CC[C@H]1N2C [COCAINE] | 0.54 |
| CCCN1C2CCC1C(C(=O)OC)[C@@H](c1ccc(F)cc1)C2 (stereo not given in full) | 0.7 |
| C=CCN1C2CCC1C(C(=O)OC)[C@@H](c1ccc(F)cc1)C2 (stereo not given in full) | 0.65 |
| COC(=O)C1C2CCC(C[C@@H]1c1ccc(F)cc1)N2 (stereo not given in full) | 0.64 |
| COC(=O)[C@H]1[C@@H](c2ccc(F)cc2)C[C@H]2CC[C@H]1N2C | 0.66 |
